One assay has as its target Human recombinant PARP1 (Homo sapiens, UniProt P09874). Put plainly: RBC HotSpot PARP1 radioisotope-based filter binding assay. The class given is biochemical. As for the experimental part:
The following methods are for evaluating the in vitro biology properties of the test articles. • a. RBC HotSpot Poly(ADP-ribose) Polymerases 1 (PARP1) and Poly(ADP-ribose) Polymerases 2 (PARP2) Assays: The assay principle is radioisotope-based filter binding assay where incorporation of radioisotope-labeled NAD^+ into the substrate captured on filter is detected after washout free NAD^+. Data were analyzed using Excel and GraphPad Prism software for IC50 curve fits. Each assay was conducted with PJ34 as a positive control. • i. PARP1 assay: Human recombinant PARP1 at a final concentration of 2.5 nM was combined with histone H4 (20 μM) and test articles at various concentrations in reaction buffer (50 mM Tris-HCL, pH 8.0, 50 mM NaCl, 10 mM MgCl2, 1 mM DTT, 1% DMSO, and 20 μg/mL activated DNA). The solution was inoculated for 20 min at room temperature and the reaction initiated by adding [adenylate-^32P]-Nicotinamide Adenine Dinucleotide, ^32P-NAD^+ at a final concentration of 10 μM. After incubation for 2 hour at room temperature, the reaction mixture was filtered and washed with 0.75% phosphoric acid for radioactivity detection. • ii. PARP2 assay: Human recombinant PARP2 at a final concentration of 2.5 nM was combined with histone H3 (20 μM) and test articles at various concentrations in reaction buffer (50 mM Tris-HCL, pH 8.0, 50 mM NaCl, 10 mM MgCl2, 1 mM DTT, 1% DMSO, and 20 μg/mL activated DNA). The solution was inoculated for 20 min at room temperature and the reaction was initiated by adding [adenylate-^32P]-Nicotinamide Adenine Dinucleotide, ^32P-NAD^+ at a final concentration of 10 μM. After incubation for 2 hour at room temperature, the reaction mixture was filtered and washed with 0.75% phosphoric acid for radioactivity detection. • b. AR binding assay: AR in LNCaP cytosol was used for determining the binding affinity of test articles and the reference compound—progesterone (Sigma, Cat: E2785, St. Louis, MO). IC50s were determined using 8 concentrations/compound. Cytosol was plated at 200 μg/well (100 μL) into a 96-well conical polypropylene plate (Agilent, Cat: 5042-1385, Santa Clara, CA) and mixed with 3 μL of test compound. After adding 100 μL of ^3H-methyltrienolone (PerkinElmer, Cat: NET590250UC, San Jose, CA), the plate was sealed and shaken at 300 rpm at 4° C. for 24 hours. Post incubation, 100 μL of radioligand adsorption buffer containing 10 mM Tris-HCl, pH 7.4; 1.5 mM EDTA; 1 mM DTT; 0.25% charcoal; 0.0025% dextran was added to individual well. Plate was shaken for 15 min at 4′C followed by centrifugation at 3000 rpm for 30 min at 4° C. 150 μL of supernatant was transferred into scint-tube (PerkinElmer, Cat: 6000192) and mixed with 2 mL of Ultima Gold Cocktail (PerkinElmer, Cat: 6013329). Radioactivity was counted using a TriCarb 2910 TR scintillation counter (PerkinElmer). Inhibition of the radioactivity by test articles were calculated using the equation below: % Inhibition=(1−(Assay well−Average_LC)/(Average_HC−Average_LC))×100%.

The subject of another assay is 22RV1 cells. Put plainly: Cell proliferation assay (CellTiter Glo), 22RV1. The class given is cell-based. The settings on record: Homo sapiens, 22Rv1, 72 h, read-out: 22RV1 IC50. As for the experimental part: IC50 values were calculated and graphed using the model “log(inhibitor) vs. response—Variable slope” included in GraphPad Prism 5 (San Diego, CA). The Ki values were further calculated using the equation below where [L] was the radioligand concentration (1 nM) using in this study. Kd value was 0.332 nM. Ki=IC50/(1+[L]/Kd) c. AR transactivation: Human AR cloned into a CMV vector backbone was used for the transactivation study. HEK-293 cells were plated at 80,000 cells per well of a 24 well plate in DME+5% csFBS. Twenty four hours later, the cells were transfected using Lipofectamine (Invitrogen, Carlsbad, CA) with 0.25 μg GRE-LUC, 0.01 μg CMV-LUC (renilla luciferase) and 25 ng of the AR in OPTIMEM medium. The cells were treated 24 hrs after transfection with various ligands (10^−12 to 10^−5 M final concentrations) and luciferase assay were performed 48 hours after transfection. Firefly values were normalized to renilla luciferase values and the values were represented as relative light units (RLU). Agonist and antagonist assays for the test article were performed in the absence and in the combination with 0.1 nM R1881, respectively. Data were represented as EC50 (for agonists) and IC50 (for antagonists) obtained from four parameter logistics curve. Cell culture and proliferation assays: LNCaP, PC-3, 22RV1, MCF-7, HT-29, and HCT-116 cells were procured from American Type Culture Collection (ATCC). Cells were cultured in medium recommended by the ATCC. Cell culture medium was obtained from Fisher scientific (Waltham, MA) and serum was obtained from Hyclone (San Angelo, TX).
Cells were plated at varying density in the respective growth medium in 96 well plates. 24 hr later, cells were treated, in triplicate or quadruplicate, with test articles prepared in a range of concentrations by series dilution of DMSO stock solutions in growth medium and incubated for three to seven days. The number of viable 22RV1 and HT-29 cells was measured using CellTiter Glo assay (CTG, Promega, Madison, WI) after three days of treatment. The other types of cancer cells were re-treated at three or four days and the number of viable cells was measured using CTG assay after a total treatment time of six or seven days. Cell viability data were plotted using GraphPad Prism (GraphPad Software, Inc., San Diego, CA). In addition, a nonlinear regression model with a sigmoidal dose response and variable slope within GraphPad Prism was used to calculate the IC50 value of individual test articles. Additional cell proliferation assays: Other cancer cell lines are tested in a cell proliferation assay. For example, SK-OV-3 or OVCAR3 ovarian cancer cells are tested. Cells are cultured in medium recommended by the supplier (e.g., ATCC or JCRB Cell Bank), at 37° C. in a 5% CO2 environment. For the proliferation assay, cells are plated in the growth medium in 96 well plates. Seeding density is adjusted according to the cell type. 24 hr later, cells are treated, in triplicate or quadruplicate, with test articles prepared in a range of concentrations by series dilution of DMSO stock solutions in growth medium, and typically incubated for three to seven days, with test article-containing medium replaced after three or four days. The number of viable cells is measured using CellTiter Glo assay (CTG, Promega, Madison, WI) or similar. Cell viability data are plotted using GraphPad Prism (GraphPad Software, Inc., San Diego, CA). In addition, a nonlinear regression model with a sigmoidal dose response and variable slope within GraphPad Prism is used to calculate the IC50 value of individual test articles. Similarly, HEK-293 and HeLa calls can also be tested by methods known in the art. • f. Nuclear translocation: LNCaP cells are plated on coverslips in 24 well plates in growth medium. Twenty-four hours after plating, medium is changed to RPMI+1% csFBS and the cells are maintained in this medium for two days. Medium is replaced again and the cells are treated. […]

Setting [1] is: 2.5 nM enzyme, histone H4, 10 μM 32P-NAD+, read-out: PARP1 IC50.
[2] abbreviates: cell growth inhibition, three days of treatment.

Like-named read-outs stand apart in the source and are kept apart here.

Sequence of Human recombinant PARP1 (P09874 whole entry): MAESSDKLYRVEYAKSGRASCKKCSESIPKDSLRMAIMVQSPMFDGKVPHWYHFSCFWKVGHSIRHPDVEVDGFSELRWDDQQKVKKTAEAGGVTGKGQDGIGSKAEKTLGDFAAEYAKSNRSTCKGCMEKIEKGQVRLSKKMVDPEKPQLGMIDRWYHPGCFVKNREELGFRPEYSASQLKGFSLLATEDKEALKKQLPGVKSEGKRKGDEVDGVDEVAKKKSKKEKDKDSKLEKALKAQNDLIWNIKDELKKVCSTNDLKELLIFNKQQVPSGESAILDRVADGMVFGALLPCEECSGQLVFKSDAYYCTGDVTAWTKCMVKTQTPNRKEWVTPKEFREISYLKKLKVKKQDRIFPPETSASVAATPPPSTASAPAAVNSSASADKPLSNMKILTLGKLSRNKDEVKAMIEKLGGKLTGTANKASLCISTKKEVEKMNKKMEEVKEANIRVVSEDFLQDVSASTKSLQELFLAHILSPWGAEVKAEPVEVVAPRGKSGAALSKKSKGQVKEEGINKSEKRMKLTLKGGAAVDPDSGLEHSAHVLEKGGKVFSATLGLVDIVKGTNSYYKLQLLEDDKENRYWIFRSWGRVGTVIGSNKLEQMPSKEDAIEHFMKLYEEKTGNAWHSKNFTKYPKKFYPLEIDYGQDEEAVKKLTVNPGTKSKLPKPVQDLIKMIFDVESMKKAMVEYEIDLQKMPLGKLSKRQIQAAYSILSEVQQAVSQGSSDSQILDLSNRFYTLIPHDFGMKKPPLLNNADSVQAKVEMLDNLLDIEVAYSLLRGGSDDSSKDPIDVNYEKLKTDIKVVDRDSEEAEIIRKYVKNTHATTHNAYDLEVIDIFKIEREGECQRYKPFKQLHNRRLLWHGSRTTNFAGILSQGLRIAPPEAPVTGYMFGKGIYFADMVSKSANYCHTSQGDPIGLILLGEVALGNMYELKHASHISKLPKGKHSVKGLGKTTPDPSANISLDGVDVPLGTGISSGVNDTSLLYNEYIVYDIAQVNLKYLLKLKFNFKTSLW

On to `C[C@]12CCC(=O)C[C@@H]1CC[C@@H]1[C@@H]2CC[C@@]2(C)[C@H]1CC[C@@]2(O)CCC(=O)N1CCN(C(=O)c2cc(Cc3n[nH]c(=O)c4ccccc34)ccc2F)CC1` (stereo in doubt) [Compound 1.117, 4-(4-fluoro-3-(4-(3-((5S,8R,9S,10S,13S,14S,17R)-17-hydroxy-10,13-dimethyl-3-oxohexadecahydro-1H-cyclopenta[a]phenanthren-17-yl)propanoyl)piperazine-1-carbonyl)benzyl)phthalazin-1(2H)-one], for which the IC50 worked out at 0.3 nM at Human recombinant PARP1 (setting [1]) and 440 nM with 22RV1 cells (setting [2]).

With `C[C@]12CCC(=O)C[C@@H]1CC[C@@H]1[C@@H]2CC[C@@]2(C)[C@H]1CC[C@@]2(O)C#CCN1CCN(C(=O)c2cc(Cc3n[nH]c(=O)c4ccccc34)ccc2F)CC1` [Compound 1.118, 4-(4-fluoro-3-(4-(3-((5S,8R,9S,10S,13S,14S,17S)-17-hydroxy-10,13-dimethyl-3-oxohexadecahydro-1H-cyclopenta[a]phenanthren-17-yl)prop-2-ynyl)piperazine-1-carbonyl)benzyl)phthalazin-1(2H)-one], the IC50 was 13.6 nM on Human recombinant PARP1 (setting [1]) and 9700 nM in the assay with 22RV1 cells (setting [2]).

For `C[C@](O)(CS(=O)(=O)c1ccc(NCCCCCC(=O)N2CCN(C(=O)c3cc(Cc4n[nH]c(=O)c5ccccc45)ccc3F)CC2)cc1)C(=O)Nc1ccc(C#N)c(C(F)(F)F)c1` [Compound 1.68, (R)-N-(4-cyano-3-(trifluoromethyl)phenyl)-3-(4-(6-(4-(2-fluoro-5-((4-oxo-3,4-dihydrophthalazin-1-yl)methyl)benzoyl)piperazin-1-yl)-6-oxohexylamino)phenylsulfonyl)-2-hydroxy-2-methylpropanamide], the IC50 on Human recombinant PARP1 amounted to 0.3 nM; in the assay on 22RV1 cells, 4700 nM.

Regarding `C[C@]12CCC(=O)C[C@@H]1CC[C@@H]1[C@@H]2CC[C@@]2(C)[C@H]1CC[C@@]2(O)c1cn(CC(=O)N2CCN(C(=O)c3cc(Cc4n[nH]c(=O)c5ccccc45)ccc3F)CC2)nn1` [Compound 1.107, 4-(4-fluoro-3-(4-(2-(4-((5S,8R,9S,10S,13S,14S,17S)-17-hydroxy-10,13-dimethyl-3-oxohexadecahydro-1H-cyclopenta[a]phenanthren-17-yl)-1H-1,2,3-triazol-1-yl)acetyl)piperazine-1-carbonyl)benzyl)phthalazin-1(2H)-one], the figures for the IC50 on Human recombinant PARP1 (setting [1]) and in the assay on 22RV1 cells (setting [2]) were 0.3 nM and 1300 nM, respectively.

In the case of `C[C@]12CCC(=O)C[C@@H]1CC[C@@H]1[C@@H]2CC[C@@]2(C)[C@H]1CC[C@@]2(O)C#CC(=O)N1CCN(C(=O)c2cc(Cc3n[nH]c(=O)c4ccccc34)ccc2F)CC1` [Compound 1.116, 4-(4-fluoro-3-(4-(3-((5S,8R,9S,10S,13S,14S,17S)-17-hydroxy-10,13-dimethyl-3-oxohexadecahydro-1H-cyclopenta[a]phenanthren-17-yl)propioloyl)piperazine-1-carbonyl)benzyl)phthalazin-1(2H)-one], the IC50 is 0.5 nM on Human recombinant PARP1 (setting [1]) and 2600 nM with 22RV1 cells (setting [2]).

In the case of `C[C@](O)(CS(=O)(=O)c1ccc(NCCN2CCN(C(=O)c3cc(Cc4n[nH]c(=O)c5ccccc45)ccc3F)CC2)cc1)C(=O)Nc1ccc(C#N)c(C(F)(F)F)c1` [Compound 1.99, (R)-N-(4-cyano-3-(trifluoromethyl)phenyl)-3-(4-(2-(4-(2-fluoro-5-((4-oxo-3,4-dihydrophthalazin-1-yl)methyl)benzoyl)piperazin-1-yl)ethylamino)phenylsulfonyl)-2-hydroxy-2-methylpropanamide], the IC50 on Human recombinant PARP1 came to 0.8 nM; in the assay on 22RV1 cells, 3600 nM.

On to `C[C@]12CCC(O)C[C@@H]1CC[C@@H]1[C@@H]2CC[C@]2(C)[C@@H](OCCCCCC(=O)N3CCN(C(=O)c4cc(Cc5n[nH]c(=O)c6ccccc56)ccc4F)CC3)CC[C@@H]12` (stereo partly drawn) [Compound 1.111, 4-(4-fluoro-3-(4-(6-((5S,8R,9S,10S,13S,14S,17S)-3-hydroxy-10,13-dimethylhexadecahydro-1H-cyclopenta[a]phenanthren-17-yloxy)hexanoyl)piperazine-1-carbonyl)benzyl)phthalazin-1(2H)-one], for which the IC50 on Human recombinant PARP1 (setting [1]) turned out to be 1.6 nM; in the assay on 22RV1 cells (setting [2]), 890 nM.

Values taken from patent publication US12398121B2 (Nuvation Bio Inc., priority 2018, dated 2025).
